Some results are limits rather than exact numbers.

The test system of one test is SARS-CoV-2 strain USA-WA1/2020. As to the kind of experiment: microbe, parasite or virus in culture. The format is cell-based. To be noted: Severe acute respiratory syndrome coronavirus 2, HeLa-ACE2, 24 h, HeLa-ACE2 cells, SARS-CoV-2 infection, 24 h; class symbols; read-out: EC50, uM (Hela).
Turning to `CC(C)(F)C[C@H](O)C(=O)N1CC2(CC2)C[C@H]1C(=O)N[C@@H](C[C@@H]1CCNC1=O)C(=O)COC(F)(F)F` [Compound 350, (S)-5-((S)-4-fluoro-2-hydroxy-4-methylpentanoyl)-N-((S)-3-oxo-1-((S)-2-oxopyrrolidin-3-yl)-4-(trifluoromethoxy)butan-2-yl)-5-azaspiro[2.4]-heptane-6-carboxamide], the EC50 lay in the range of 0.05 to 0.2 µM.

In the case of `CC[C@@H](O)C(=O)N1[C@H](C(=O)N[C@@H](C[C@@H]2CCNC2=O)C(=O)COC(F)(F)F)C[C@@H]2CCCC[C@@H]21` [Compound 373, (2S,3aS,7aS)-1-((R)-2-hydroxybutanoyl)-N-((S)-3-oxo-1-((S)-2-oxopyrrolidin-3-yl)-4-(trifluoro-methoxy)butan-2-yl)octahydro-1H-indole-2-carboxamide], the EC50 lay within 0.2 to 0.5 µM.

In the case of `O=C(Nc1ccccc1)C(=O)N[C@@H](CC1CC1)C(=O)N[C@@H](C[C@@H]1CCNC1=O)C(=O)COc1c(F)c(F)cc(F)c1F` [Compound 30, N1-((S)-3-cyclopropyl-1-oxo-1-(((S)-3-oxo-1-((S)-2-oxopyrrolidin-3-yl)-4-(2,3,5,6-tetrafluorophenoxy)butan-2-yl)amino)propan-2-yl)-N2-phenyloxalamide], the EC50 is less than 0.05 µM.

In the case of `Cc1ccccc1N(C)C(=O)C(=O)N[C@@H](CC(C)C)C(=O)N[C@@H](C[C@@H]1CCNC1=O)C(=O)COc1c(F)c(F)cc(F)c1F` [Compound 107, N1-methyl-N2-((S)-4-methyl-1-oxo-1-(((S)-3-oxo-1-((S)-2-oxopyrrolidin-3-yl)-4-(2,3,5,6-tetrafluorophenoxy)butan-2-yl)amino)pentan-2-yl)-N1-(o-tolyl)oxalamide], the EC50 lay within 0.2 to 0.5 µM.

For the molecule `CC(C)(C)C[C@H](NC(=O)C(=O)NC12CC(F)(C1)C2)C(=O)N[C@@H](C[C@@H]1CCNC1=O)C(=O)COC(F)(F)F` [Compound 226, N1-((S)-4,4-dimethyl-1-oxo-1-(((S)-3-oxo-1-((S)-2-oxopyrrolidin-3-yl)-4-(trifluoromethoxy)butan-2-yl)amino)pentan-2-yl)-N2-(3-fluorobicyclo[1.1.1]-pentan-1-yl)oxalamide], the half-maximal effective concentration (EC50) was less than 0.05 µM.

Take `CC1(C)[C@@H]2[C@@H](C(=O)N[C@@H](C[C@@H]3CCNC3=O)C(=O)COC(F)(F)F)N(C(=O)C(O)c3ccc(F)c(F)c3)C[C@@H]21` (stereo partly drawn) [Compound 401, (1R,2S,5S)-3-(2-(3,4-difluorophenyl)-2-hydroxyacetyl)-6,6-dimethyl-N-((S)-3-oxo-1-((S)-2-oxopyrrolidin-3-yl)-4-(trifluoromethoxy)butan-2-yl)-3-azabicyclo[3.1.0]hexane-2-carboxamide]: the EC50 was less than 0.05 µM.

On to `O=C(N[C@@H](CC1CC1)C(=O)N[C@@H](C[C@@H]1CCNC1=O)C(=O)COC(F)(F)F)c1nc2ccccc2o1` [Compound 201, N-((S)-3-cyclopropyl-1-oxo-1-(((S)-3-oxo-1-((S)-2-oxopyrrolidin-3-yl)-4-(trifluoromethoxy)butan-2-yl)amino)propan-2-yl)benzo[d]oxazole-2-carboxamide], for which the EC50 is less than 0.05 µM.

Turning to `CC(C)C[C@H](NC(=O)C(=O)Nc1cccnc1C(F)(F)F)C(=O)N[C@@H](C[C@@H]1CCNC1=O)C(=O)COc1c(F)c(F)cc(F)c1F` [Compound 48, N1-((S)-4-methyl-1-oxo-1-(((S)-3-oxo-1-((S)-2-oxopyrrolidin-3-yl)-4-(2,3,5,6-tetrafluorophenoxy)butan-2-yl)amino)pentan-2-yl)-N2-(2-(trifluoromethyl)-pyridin-3-yl)oxalamide], the EC50 is less than 0.05 µM.

The same test, now with this note: Severe acute respiratory syndrome coronavirus 2, HeLa-ACE2, 24 h, HeLa-ACE2 cells, SARS-CoV-2 infection, 24 h; read-out: EC50, uM (Hela).
Regarding `O=C1NCC[C@H]1C[C@H](NC(=O)[C@@H]1CC2(CC2)CN1C(=O)[C@H](O)CC(C(F)(F)F)C(F)(F)F)C(=O)COC(F)(F)F` [Compound 744, (S)-N-((S)-3-oxo-1-((S)-2-oxopyrrolidin-3-yl)-4-(trifluoromethoxy)butan-2-yl)-5-((R)-5,5,5-trifluoro-2-hydroxy-4-(trifluoromethyl)pentanoyl)-5-azaspiro[2.4]heptane-6-carboxamide], the EC50 was less than 0.05 µM.

Turning to `CC(C)C[C@@H](C)C(=O)N1CC2(CC2)C[C@H]1C(=O)N[C@@H](C[C@@H]1CCNC1=O)C(=O)COC(F)(F)F` [Compound 752, (S)-5-((R)-2,4-dimethylpentanoyl)-N-((S)-3-oxo-1-((S)-2-oxopyrrolidin-3-yl)-4-(trifluoromethoxy)butan-2-yl)-5-azaspiro[2.4]heptane-6-carboxamide], the EC50 was less than 0.05 µM.

`O=C1NCC[C@H]1C[C@H](NC(=O)[C@@H]1CC2(CC2)CN1C(=O)COc1ccc(OC(F)(F)F)cc1)C(=O)COC(F)(F)F` [Compound 773, (S)-N-((S)-3-oxo-1-((S)-2-oxopyrrolidin-3-yl)-4-(trifluoromethoxy)butan-2-yl)-5-(2-(4-(trifluoromethoxy)phenoxy)acetyl)-5-azaspiro[2.4]heptane-6-carboxamide]: the EC50 is less than 0.05 µM.

With `O=C(N[C@@H](CC1CC1)C(=O)N[C@@H](C[C@@H]1CCNC1=O)C(=O)COC(F)(F)F)C(=O)NC12CC(F)(C1)C2` [Compound 509, N1-((S)-3-cyclopropyl-1-oxo-1-(((S)-3-oxo-1-((S)-2-oxopyrrolidin-3-yl)-4-(trifluoromethoxy)butan-2-yl)amino)propan-2-yl)-N2-(3-fluorobicyclo[1.1.1]-pentan-1-yl)oxalamide], the EC50 is less than 0.05 µM.

Consider `O=C(Nc1ccc(Cl)cc1F)C(=O)N1CC2(CC2)C[C@H]1C(=O)N[C@@H](C[C@@H]1CCNC1=O)C(=O)COC(F)(F)F` [Compound 591, (S)-5-(2-((4-chloro-2-fluorophenyl)amino)-2-oxoacetyl)-N-((S)-3-oxo-1-((S)-2-oxopyrrolidin-3-yl)-4-(trifluoromethoxy)butan-2-yl)-5-azaspiro[2.4]-heptane-6-carboxamide], for which the EC50 is less than 0.05 µM.

Take `[2H]C([2H])([2H])C([2H])(C([2H])([2H])[2H])C([2H])([2H])C(=O)N1CC2(CC2)C[C@H]1C(=O)N[C@@H](C[C@@H]1CCNC1=O)C(=O)COC(F)(F)F` [Compound 737, (S)-5-(3-(methyl-d3)butanoyl-2,2,3,4,4,4-d6)-N-((S)-3-oxo-1-((S)-2-oxopyrrolidin-3-yl)-4-(trifluoromethoxy)butan-2-yl)-5-azaspiro[2.4]heptane-6-carboxamide]: the EC50 was less than 0.05 µM.

As for `CC1(C)[C@@H]2[C@@H](C(=O)N[C@@H](C[C@@H]3CCNC3=O)C(=O)COC(F)(F)F)N(C(=O)C(=O)NC34CC(F)(C3)C4)C[C@@H]21` [Compound 486, (1R,2S,5S)-3-(2-((3-fluorobicyclo[1.1.1]-pentan-1-yl)amino)-2-oxoacetyl)-6,6-dimethyl-N-((S)-3-oxo-1-((S)-2-oxopyrrolidin-3-yl)-4-(trifluoromethoxy)butan-2-yl)-3-azabicyclo[3.1.0]-hexane-2-carboxamide], the EC50 is 0.05 to 0.2 µM.

In the case of `CC(C)(F)c1cc(C(=O)N2C[C@@H]3CCC[C@@H]3[C@H]2C(=O)N[C@@H](C[C@@H]2CCNC2=O)C(=O)COC(F)(F)F)no1` [Compound 491, (1S,3aR,6aS)-2-(5-(2-fluoropropan-2-yl)isoxazole-3-carbonyl)-N-((S)-3-oxo-1-((S)-2-oxopyrrolidin-3-yl)-4-(trifluoromethoxy)butan-2-yl)octahydrocyclo-penta[c]pyrrole-1-carboxamide], the EC50 is less than 0.05 µM.

In the case of `CC(C)C[C@@H](O)C(=O)N1CCCC[C@H]1C(=O)N[C@@H](C[C@@H]1CCNC1=O)C(=O)COC(F)(F)F` [Compound 636, (S)-1-((R)-2-hydroxy-4-methylpentanoyl)-N-((S)-3-oxo-1-((S)-2-oxopyrrolidin-3-yl)-4-(trifluoromethoxy)butan-2-yl)piperidine-2-carboxamide], the EC50 lay in the range of 0.05 to 0.2 µM.

Turning to `CC(C)(C)c1ccccc1NC(=O)C(=O)N1CC2(CC2)C[C@H]1C(=O)N[C@@H](C[C@@H]1CCNC1=O)C(=O)COC(F)(F)F` [Compound 613, (S)-5-(2-((2-(tert-butyl)phenyl)amino)-2-oxoacetyl)-N-((S)-3-oxo-1-((S)-2-oxopyrrolidin-3-yl)-4-(trifluoromethoxy)butan-2-yl)-5-azaspiro[2.4]heptane-6-carboxamide], the EC50 was less than 0.05 µM.

`O=C(NC1CC1)C(=O)N[C@@H](CC1CC1)C(=O)N[C@@H](C[C@@H]1CCNC1=O)C(=O)COC(F)(F)F` [Compound 586, N1-cyclopropyl-N2-((S)-3-cyclopropyl-1-oxo-1-(((S)-3-oxo-1-((S)-2-oxopyrrolidin-3-yl)-4-(trifluoromethoxy)butan-2-yl)amino)propan-2-yl)oxalamide]: the EC50 was less than 0.05 µM.

As for `O=C1NCC[C@H]1C[C@H](NC(=O)[C@@H]1CC2(CC2)CN1C(=O)C(O)c1ccc(F)cc1F)C(=O)COC(F)(F)F` (stereo partly drawn) [Compound 402, (6S)-5-(2-(2,4-difluorophenyl)-2-hydroxyacetyl)-N-((S)-3-oxo-1-((S)-2-oxopyrrolidin-3-yl)-4-(trifluoromethoxy)butan-2-yl)-5-azaspiro[2.4]heptane-6-carboxamide], the EC50 is less than 0.05 µM.

Consider `O=C1NCC[C@H]1C[C@H](NC(=O)[C@@H]1CC2(CC2)CN1C(=O)[C@@H]1CCCO1)C(=O)COC(F)(F)F` [Compound 679, (S)-N-((S)-3-oxo-1-((S)-2-oxopyrrolidin-3-yl)-4-(trifluoromethoxy)butan-2-yl)-5-((S)-tetrahydrofuran-2-carbonyl)-5-azaspiro[2.4]heptane-6-carboxamide], for which the EC50 was 0.2 to 0.5 µM.

`CC(=O)N1C[C@H](C(F)(F)F)C[C@H]1C(=O)N[C@@H](C[C@@H]1CCNC1=O)C(=O)COC(F)(F)F` [Compound 724, (2S,4R)-1-acetyl-N-((S)-3-oxo-1-((S)-2-oxopyrrolidin-3-yl)-4-(trifluoromethoxy)butan-2-yl)-4-(trifluoromethyl)pyrrolidine-2-carboxamide]: the half-maximal effective concentration (EC50) was in the range of 0.05 to 0.2 µM.

As to `CC(C)C[C@@H](O)C(=O)N1C2CCC(CC2)[C@H]1C(=O)N[C@@H](C[C@@H]1CCNC1=O)C(=O)COC(F)(F)F` [Compound 642, (S)-2-((R)-2-hydroxy-4-methylpentanoyl)-N-((S)-3-oxo-1-((S)-2-oxopyrrolidin-3-yl)-4-(trifluoromethoxy)butan-2-yl)-2-azabicyclo[2.2.2]octane-3-carboxamide], the EC50 was less than 0.05 µM.

Values taken from patent US11708348B2, “Protease inhibitors for treatment of coronavirus infections” (The Scripps Research Institute, priority 2021, dated 2023).
